# Data published in patent publication US12304890B2, “R-type pyridyloxycarboxylic acid, salt and ester derivative thereof, and preparation method therefor, and herbicidal composition and application thereof” (Qingdao Kingagroot Chemical Compound Co., Ltd., priority 2018, dated 2025).
# How the values were obtained:
# Type in all cases: in vivo
# Digitaria sanguinalis = assay: Post-emergence test experiment, Digitaria sanguinalis; conditions: 1000 g a.i./ha, 3 weeks in greenhouse, fresh weight inhibition
# In short: (§1)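 Seeds sown under 0.5-2 cm soil; sprayed post-emergence at 2-3 leaves with acetone/tween-80 solution plus 1.5 L/ha methyl oleate EC; greenhouse 3 wk; % fresh weight inhibition.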
# Echinochloa crusgalli = assay: Post-emergence test experiment, Echinochloa crusgalli; conditions: 1000 g a.i./ha, 3 weeks in greenhouse, fresh weight inhibition
# In short: as §1
# [1] = system: Monocotyledonous and dicotyledonous weed seeds and main crop seeds; assay: Post-emergence test experiment, other weeds and crops (Table 4, 1000 g a.i./ha); conditions: 3 weeks in greenhouse, fresh weight inhibition
# In short: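 Growth inhibition is scored on fresh weight. Spray solutions were made in acetone with tween-80, diluted in water, plus 1.5 L/ha methyl oleate emulsible concentrate. Plants from greenhouse-grown weed and crop seeds were treated post-emergence at 2-3 leaves, 2 weeks after sowing.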
SMILES,"Activity level (growth inhibition rate), Digitaria sanguinalis (Digitaria sanguinalis)","Activity level (growth inhibition rate), Echinochloa crusgalli (Echinochloa crusgalli)","Activity level (growth inhibition rate), Abutilon theophrasti Medic. [1]","Activity level (growth inhibition rate), Galium aparine [1]","Activity level (growth inhibition rate), Monochoria Vaginalis [1]"
CC(Oc1nc(F)c(Cl)c(N)c1Cl)C(=O)OCC(F)(F)C(F)(F)F (centres unmarked) [Compound 2-282],5 (Level 5: the growth inhibition rate is greater than 85%),5 (Level 5: the growth inhibition rate is greater than 85%),5 (Level 5: the growth inhibition rate is greater than 85%),5 (Level 5: the growth inhibition rate is greater than 85%),5 (Level 5: the growth inhibition rate is greater than 85%)
CC(Oc1nc(F)c(Cl)c(N)c1Cl)C(=O)OCCN (centres unmarked) [Compound 2-284],5 (Level 5: the growth inhibition rate is greater than 85%),5 (Level 5: the growth inhibition rate is greater than 85%),5 (Level 5: the growth inhibition rate is greater than 85%),5 (Level 5: the growth inhibition rate is greater than 85%),5 (Level 5: the growth inhibition rate is greater than 85%)
CC(Oc1nc(F)c(Cl)c(N)c1Cl)C(=O)OCC=CCl (centres unmarked) [Compound 2-285],5 (Level 5: the growth inhibition rate is greater than 85%),5 (Level 5: the growth inhibition rate is greater than 85%),5 (Level 5: the growth inhibition rate is greater than 85%),5 (Level 5: the growth inhibition rate is greater than 85%),5 (Level 5: the growth inhibition rate is greater than 85%)
CC(Oc1nc(F)c(Cl)c(N)c1Cl)C(=O)OCC(Cl)=C(Cl)Cl (centres unmarked) [Compound 2-286],5 (Level 5: the growth inhibition rate is greater than 85%),5 (Level 5: the growth inhibition rate is greater than 85%),5 (Level 5: the growth inhibition rate is greater than 85%),5 (Level 5: the growth inhibition rate is greater than 85%),5 (Level 5: the growth inhibition rate is greater than 85%)
C=CCOC(=O)C(C)(C)OC(=O)C(C)Oc1nc(F)c(Cl)c(N)c1Cl (centres unmarked) [Compound 2-288],5 (Level 5: the growth inhibition rate is greater than 85%),5 (Level 5: the growth inhibition rate is greater than 85%),5 (Level 5: the growth inhibition rate is greater than 85%),5 (Level 5: the growth inhibition rate is greater than 85%),5 (Level 5: the growth inhibition rate is greater than 85%)
CC(Oc1nc(F)c(Cl)c(N)c1Cl)C(=O)OCC(=O)N(C)C (centres unmarked) [Compound 2-289],5 (Level 5: the growth inhibition rate is greater than 85%),5 (Level 5: the growth inhibition rate is greater than 85%),5 (Level 5: the growth inhibition rate is greater than 85%),5 (Level 5: the growth inhibition rate is greater than 85%),5 (Level 5: the growth inhibition rate is greater than 85%)
COC(=O)CSC(=O)C(C)Oc1nc(F)c(Cl)c(N)c1Cl (centres unmarked) [Compound 2-290],5 (Level 5: the growth inhibition rate is greater than 85%),5 (Level 5: the growth inhibition rate is greater than 85%),5 (Level 5: the growth inhibition rate is greater than 85%),5 (Level 5: the growth inhibition rate is greater than 85%),5 (Level 5: the growth inhibition rate is greater than 85%)
CCC(OC)OC(=O)C(C)Oc1nc(F)c(Cl)c(N)c1Cl (centres unmarked) [Compound 2-291],5 (Level 5: the growth inhibition rate is greater than 85%),5 (Level 5: the growth inhibition rate is greater than 85%),5 (Level 5: the growth inhibition rate is greater than 85%),5 (Level 5: the growth inhibition rate is greater than 85%),5 (Level 5: the growth inhibition rate is greater than 85%)
COC(=O)C(C)OC(=O)C(C)Oc1nc(F)c(Cl)c(N)c1Cl (centres unmarked) [Compound 2-295],5 (Level 5: the growth inhibition rate is greater than 85%),5 (Level 5: the growth inhibition rate is greater than 85%),5 (Level 5: the growth inhibition rate is greater than 85%),5 (Level 5: the growth inhibition rate is greater than 85%),5 (Level 5: the growth inhibition rate is greater than 85%)
COC(=O)OC(C)OC(=O)C(C)Oc1nc(F)c(Cl)c(N)c1Cl (centres unmarked) [Compound 2-296],5 (Level 5: the growth inhibition rate is greater than 85%),5 (Level 5: the growth inhibition rate is greater than 85%),5 (Level 5: the growth inhibition rate is greater than 85%),5 (Level 5: the growth inhibition rate is greater than 85%),5 (Level 5: the growth inhibition rate is greater than 85%)
CC(Oc1nc(F)c(Cl)c(N)c1Cl)C(=O)OC1CCCO1 (centres unmarked) [Compound 2-297],5 (Level 5: the growth inhibition rate is greater than 85%),5 (Level 5: the growth inhibition rate is greater than 85%),5 (Level 5: the growth inhibition rate is greater than 85%),5 (Level 5: the growth inhibition rate is greater than 85%),5 (Level 5: the growth inhibition rate is greater than 85%)
CC(Oc1nc(F)c(Cl)c(N)c1Cl)C(=O)Oc1ccccc1 (centres unmarked) [Compound 2-299],5 (Level 5: the growth inhibition rate is greater than 85%),5 (Level 5: the growth inhibition rate is greater than 85%),5 (Level 5: the growth inhibition rate is greater than 85%),5 (Level 5: the growth inhibition rate is greater than 85%),5 (Level 5: the growth inhibition rate is greater than 85%)
CC(Oc1nc(F)c(Cl)c(N)c1Cl)C(=O)SCc1ccccc1 (centres unmarked) [Compound 2-301],5 (Level 5: the growth inhibition rate is greater than 85%),5 (Level 5: the growth inhibition rate is greater than 85%),5 (Level 5: the growth inhibition rate is greater than 85%),5 (Level 5: the growth inhibition rate is greater than 85%),5 (Level 5: the growth inhibition rate is greater than 85%)
Cc1ccccc1COC(=O)C(C)Oc1nc(F)c(Cl)c(N)c1Cl (centres unmarked) [Compound 2-302],5 (Level 5: the growth inhibition rate is greater than 85%),5 (Level 5: the growth inhibition rate is greater than 85%),5 (Level 5: the growth inhibition rate is greater than 85%),5 (Level 5: the growth inhibition rate is greater than 85%),5 (Level 5: the growth inhibition rate is greater than 85%)
Cc1ccccc1CSC(=O)C(C)Oc1nc(F)c(Cl)c(N)c1Cl (centres unmarked) [Compound 2-303],5 (Level 5: the growth inhibition rate is greater than 85%),5 (Level 5: the growth inhibition rate is greater than 85%),5 (Level 5: the growth inhibition rate is greater than 85%),5 (Level 5: the growth inhibition rate is greater than 85%),5 (Level 5: the growth inhibition rate is greater than 85%)
Cc1cccc(COC(=O)C(C)Oc2nc(F)c(Cl)c(N)c2Cl)c1 (centres unmarked) [Compound 2-304],5 (Level 5: the growth inhibition rate is greater than 85%),5 (Level 5: the growth inhibition rate is greater than 85%),5 (Level 5: the growth inhibition rate is greater than 85%),5 (Level 5: the growth inhibition rate is greater than 85%),5 (Level 5: the growth inhibition rate is greater than 85%)
